Active and inactive are the calls of the source. No cut-off for these calls is given here.

Test [1] deals with T1, Neuronal acetylcholine receptor; alpha4/beta2 (Homo sapiens) (UniProt P17787+P43681). Kind of test: Antagonist activity at alpha4beta2 nAChR (unknown origin) expressed in Xenopus laevis oocytes assessed as reduction in acetylcholine-induced peak current at 30 uM at -60 mV holding potential by electrophysiology method. In kind it is cell-based.
The target in test [2] is Neuronal acetylcholine receptor subunit alpha-7 (Homo sapiens) (UniProt P36544). Put plainly: Antagonist activity at alpha7 nAChR (unknown origin) expressed in Xenopus laevis oocytes assessed as reduction in acetylcholine-induced peak current at 60 uM at -60 mV holding potential by electrophysiology method. The class given is cell-based.
Chain of Neuronal acetylcholine receptor subunit alpha-7 (Homo sapiens) (P36544 whole entry): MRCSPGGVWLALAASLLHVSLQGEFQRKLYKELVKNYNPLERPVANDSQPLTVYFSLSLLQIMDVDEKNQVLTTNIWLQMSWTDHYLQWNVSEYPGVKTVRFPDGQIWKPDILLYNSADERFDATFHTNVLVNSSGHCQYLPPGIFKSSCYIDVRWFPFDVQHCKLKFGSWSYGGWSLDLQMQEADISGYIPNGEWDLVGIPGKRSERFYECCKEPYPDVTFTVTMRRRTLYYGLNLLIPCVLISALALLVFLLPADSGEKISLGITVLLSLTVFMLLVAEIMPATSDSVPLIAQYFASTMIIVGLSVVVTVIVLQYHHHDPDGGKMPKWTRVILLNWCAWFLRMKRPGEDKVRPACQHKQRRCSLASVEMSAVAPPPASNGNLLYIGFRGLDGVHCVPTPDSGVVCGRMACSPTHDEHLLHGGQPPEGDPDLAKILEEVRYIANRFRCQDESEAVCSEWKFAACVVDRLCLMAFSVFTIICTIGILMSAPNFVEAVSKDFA
Test [3] shares this target. Kind of test: Agonist activity at alpha7 nAChR (unknown origin) expressed in Xenopus laevis oocytes assessed as increase in peak current at 60 uM at -60 mV holding potential by electrophysiology method. In kind it is cell-based.
In test [4] the target is T2, Neuronal acetylcholine receptor; alpha3/beta4 (Homo sapiens, UniProt P30926+P32297). Put plainly: Antagonist activity at human alpha3beta4 nAChR expressed in Xenopus laevis oocytes assessed as reduction in acetylcholine-induced peak current at -60 mV holding potential by electrophysiology method. In kind it is cell-based.
T2 sequence (P30926 whole entry): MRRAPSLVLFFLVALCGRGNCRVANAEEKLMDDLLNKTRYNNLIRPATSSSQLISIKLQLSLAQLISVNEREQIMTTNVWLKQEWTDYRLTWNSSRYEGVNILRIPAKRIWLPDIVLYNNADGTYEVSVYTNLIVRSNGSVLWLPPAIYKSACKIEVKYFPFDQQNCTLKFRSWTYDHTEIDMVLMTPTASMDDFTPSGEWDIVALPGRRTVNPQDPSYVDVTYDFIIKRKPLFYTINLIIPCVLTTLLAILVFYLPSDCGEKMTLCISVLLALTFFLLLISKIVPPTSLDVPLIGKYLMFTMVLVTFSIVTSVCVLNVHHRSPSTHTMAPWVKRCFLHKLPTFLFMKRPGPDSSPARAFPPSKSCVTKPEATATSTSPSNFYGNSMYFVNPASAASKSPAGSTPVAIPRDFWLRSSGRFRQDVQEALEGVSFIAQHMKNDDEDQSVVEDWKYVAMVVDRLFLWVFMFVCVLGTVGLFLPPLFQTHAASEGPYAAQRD
T2 sequence (P32297 whole entry): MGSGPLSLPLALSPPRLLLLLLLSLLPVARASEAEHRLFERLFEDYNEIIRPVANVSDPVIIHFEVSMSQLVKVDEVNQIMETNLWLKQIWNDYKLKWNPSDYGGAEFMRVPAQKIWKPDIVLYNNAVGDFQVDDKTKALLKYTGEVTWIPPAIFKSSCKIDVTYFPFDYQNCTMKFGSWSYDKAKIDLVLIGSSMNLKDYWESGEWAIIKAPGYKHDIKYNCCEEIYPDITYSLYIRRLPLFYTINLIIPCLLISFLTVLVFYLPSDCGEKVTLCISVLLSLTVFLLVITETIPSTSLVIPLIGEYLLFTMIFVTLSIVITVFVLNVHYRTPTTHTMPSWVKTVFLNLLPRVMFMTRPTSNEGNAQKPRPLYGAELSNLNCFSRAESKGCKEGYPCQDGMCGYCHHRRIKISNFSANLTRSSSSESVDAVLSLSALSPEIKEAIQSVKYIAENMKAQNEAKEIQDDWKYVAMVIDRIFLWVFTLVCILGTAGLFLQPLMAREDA
The target in test [5] is T2, Neuronal acetylcholine receptor; alpha3/beta4. Kind of test: Agonist activity at human alpha3beta4 nAChR expressed in Xenopus laevis oocytes assessed as increase in peak current at 100 uM at -60 mV holding potential by electrophysiology method. The class given is cell-based.
The target in test [6] is T1, Neuronal acetylcholine receptor; alpha4/beta2 (Homo sapiens). Put plainly: Agonist activity at alpha4beta2 nAChR (unknown origin) expressed in Xenopus laevis oocytes assessed as increase in peak current at 30 uM at -60 mV holding potential by electrophysiology method. The class given is cell-based.
Test [7] deals with T2, Neuronal acetylcholine receptor; alpha3/beta4. Kind of test: Antagonist activity at human alpha3beta4 nAChR expressed in Xenopus laevis oocytes assessed as reduction in acetylcholine-induced peak current at 100 uM at -60 mV holding potential by electrophysiology method. In kind it is cell-based.
Test [8] addresses Neuronal acetylcholine receptor. Kind of test: Binding affinity to nAChR in rat brain membranes. In kind it is cell membranes, Membrane.

In general, IC50 refers to the concentration that gives 50% inhibition. The Ki is the dissociation constant of the complex between target and ligand, obtained from inhibition or displacement. Consider `CN1CCC=C(c2cnc(F)c(-c3ccccc3)c2)C1`, for which the inhibition result in test [1] and in test [2] was “inactive” each time. Moreover, the result in test [3], in test [5] and in test [6] was inactive. The IC50 in test [4] was 20000 nM. Further, the Ki in test [4] came out at 123 nM. Moreover, the inhibition entry in test [7] is “Active”.

Broadly, the Kd is a measure of binding affinity in units of concentration. A low value points to tighter binding. In the case of `CN1CCC=C(c2ccc(Cl)nc2)C1`, the Kd in test [8] was 2.2 nM.

Source of the values: ChEMBL document CHEMBL4177568 (Bioorg Med Chem Lett, 2017).
